One assay has as its system SW480 colon cancer cells. The experiment in a line: Cell viability assay (CellTiter-Blue) in SW480 colon cancer cells. The class given is cell-based. The following applies: Homo sapiens, 96 h, four days; for inhibition at 10 µM: given where EC50 >10 μM, read-out: percent inhibition at 10 μM; for EC50: CellTiter-Blue. Summed up:
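SW480 colon cancer cells (~2×10^3/well) exposed to 8-point 1:3 dilutions from 10 μM to 0.0045 μM for four days at 37 °C/5% CO2. Viability read by resazurin (CellTiter-Blue) fluorescence after ~3 h, Ex 560/Em 590 nm. EC50 from non-linear regression; percent inhibition at 10 μM given when EC50 >10 μM.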
(In general: The colour change of resazurin is a common sign of viable cells or microbes.)

A further assay relates to IL-6. The experiment in a line: Inhibition of IL-6 in LPS-stimulated THP-1 human monocyte cells (HTRF). The class given is cell-based. The following applies: for EC50: IL-6 inhibition, LPS-stimulated THP-1 cells, HTRF; for inhibition at 10 µM: THP-1, printed beside >10 μM EC50, top concentration 10 μM, meaning not given, read-out: percentage in parentheses after EC50 >10. Summed up:
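THP-1 cells serum-reduced (1% FBS, 24 h), then 5000 cells/well preincubated 2 h with compound (10-point 1:3 series from 10 μM, 0.1% DMSO) before 500 ng/mL LPS for 22 h at 37 °C. Secreted IL-6 quantified by HTRF 665/620 ratio; DMSO-normalised duplicates fitted to four-parameter EC50; above 10 μM, % inhibition at 10 μM given.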

On to `CCC(=O)Nc1cncc(-c2ccc3[nH]nc(-c4cc5c(-c6cccc(F)c6)cccc5[nH]4)c3c2)c1` [Compound 1, N-(5-(3-(4-(3-Fluorophenyl)-1H-indol-2-yl)-1H-indazol-5-yl)pyridin-3-yl) propionamide], for which, in the assay with SW480 colon cancer cells, the inhibition at 10 µM was 13.3% and the EC50 – broadly, the concentration giving half of the maximal effect – was > 10 µM. The same compound displayed an EC50 with IL-6 of 4.57 µM.

As to `Fc1cccc(-c2cccc3[nH]c(-c4n[nH]c5ccc(-c6cccnc6)cc45)cc23)c1` [Compound 4, 3-(4-(3-Fluorophenyl)-1H-indol-2-yl)-5-(pyridin-3-yl)-1H-indazole], in the assay on SW480 colon cancer cells, the inhibition at 10 µM is 3.7% and the EC50 is > 10 µM. This compound displayed an EC50 in the assay with IL-6 of 0.058 µM.

Consider `CN(C)Cc1cncc(-c2ccc3[nH]nc(-c4cc5c(-c6cccc(F)c6)cccc5[nH]4)c3c2)c1` [Compound 13, 1-(5-(3-(4-(3-Fluorophenyl)-1H-indol-2-yl)-1H-indazol-5-yl)pyridin-3-yl)-N,N-dimethylmethanamine], for which the EC50 in the assay with SW480 colon cancer cells was 0.494 µM; in the assay with IL-6, 0.036 µM.

For `CCCC(=O)Nc1cncc(-c2ccc3[nH]nc(-c4cc5c(-c6cccc(F)c6)cccc5[nH]4)c3c2)c1` [Compound 17, N-(5-(3-(4-(3-Fluorophenyl)-1H-indol-2-yl)-1H-indazol-5-yl)pyridin-3-yl) butyramide], in the assay with SW480 colon cancer cells, the inhibition at 10 µM stood at 12.9% and the EC50 is > 10 µM. In the assay on IL-6, the EC50 is > 10 µM and the inhibition at 10 µM is 24.7%.

For `O=C(Nc1cncc(-c2ccc3[nH]nc(-c4cc5c(-c6cccc(F)c6)cccc5[nH]4)c3c2)c1)C1CC1` [Compound 20, N-(5-(3-(4-(3-Fluorophenyl)-1H-indol-2-yl)-1H-indazol-5-yl)pyridin-3-yl) cyclopropanecarboxamide], in the assay on SW480 colon cancer cells, the inhibition at 10 µM amounted to 15.6% and the EC50 is > 10 µM. Also, in the assay with IL-6, the EC50 is > 10 µM and the inhibition at 10 µM was 44.7%.

As for `O=C(Nc1cncc(-c2ccc3[nH]nc(-c4cc5c(-c6cccc(F)c6)cccc5[nH]4)c3c2)c1)C1CCCCC1` [Compound 23, N-(5-(3-(4-(3-Fluorophenyl)-1H-indol-2-yl)-1H-indazol-5-yl)pyridin-3-yl) cyclohexanecarboxamide], in the assay on SW480 colon cancer cells, the inhibition at 10 µM was 20.2% and the EC50 is > 10 µM. For the same compound, in the assay on IL-6, the EC50 is > 10 µM and the inhibition at 10 µM amounted to 34.2%.

With `Fc1cccc(-c2cccc3[nH]c(-c4n[nH]c5ccc(-c6ccccn6)cc45)cc23)c1` [Compound 28, 3-(4-(3-Fluorophenyl)-1H-indol-2-yl)-5-(pyridin-2-yl)-1H-indazole], in the assay on SW480 colon cancer cells, the inhibition at 10 µM came to 17.1% and the EC50 was > 10 µM. In the assay on IL-6, this compound returned an EC50 of 0.102 µM.

As to `CC(C)CC(=O)Nc1cncc(-c2ccc3[nH]nc(-c4cc5c(-c6ccc(F)cc6)cccc5[nH]4)c3c2)c1` [Compound 30, N-(5-(3-(4-(4-Fluorophenyl)-1H-indol-2-yl)-1H-indazol-5-yl)pyridin-3-yl)-3-methylbutanamide], the inhibition at 10 µM amounted to 38.2% in the assay with SW480 colon cancer cells and 27.9% with IL-6. The EC50 in the assay on SW480 colon cancer cells and with IL-6 was > 10 µM each time.

`CC(C)(C)C(=O)Nc1cncc(-c2ccc3[nH]nc(-c4cc5c(-c6ccc(F)cc6)cccc5[nH]4)c3c2)c1` [Compound 36, N-(5-(3-(4-(4-Fluorophenyl)-1H-indol-2-yl)-1H-indazol-5-yl)pyridin-3-yl) pivalamide]: in the assay with SW480 colon cancer cells, the inhibition at 10 µM is 50.4% and the EC50 is > 10 µM. The compound further registered an EC50 with IL-6 of 0.277 µM.

In the assay with SW480 colon cancer cells, `O=C(Nc1cncc(-c2ccc3[nH]nc(-c4cc5c(-c6ccc(F)cc6)cccc5[nH]4)c3c2)c1)c1ccccc1` [Compound 39, N-(5-(3-(4-(4-Fluorophenyl)-1H-indol-2-yl)-1H-indazol-5-yl)pyridin-3-yl) benzamide] registered an EC50 of 3.81 µM. In the assay with IL-6, the EC50 is > 10 µM and the inhibition at 10 µM amounted to 48.3%.

`CN(C)Cc1cncc(-c2ccc3[nH]nc(-c4cc5c(-c6ccc(F)cc6)cccc5[nH]4)c3c2)c1` [Compound 41, 1-(5-(3-(4-(4-Fluorophenyl)-1H-indol-2-yl)-1H-indazol-5-yl)pyridin-3-yl)-N,N-dimethylmethanamine]: the inhibition at 10 µM amounted to 10% in the assay on SW480 colon cancer cells and 22.9% in the assay with IL-6. For the same compound, the EC50 in the assay with SW480 colon cancer cells and in the assay on IL-6 was > 10 µM throughout.

Regarding `CC(C)(C)CC(=O)Nc1cncc(-c2ccc3[nH]nc(-c4cc5c(-c6ccc(F)cc6)cccc5[nH]4)c3c2)c1` [Compound 44, N-(5-(3-(4-(4-Fluorophenyl)-1H-indol-2-yl)-1H-indazol-5-yl)pyridin-3-yl)-3,3-dimethylbutanamide], in the assay with SW480 colon cancer cells, the inhibition at 10 µM was 23.1% and the EC50 was > 10 µM. In the assay with IL-6, the EC50 was > 10 µM and the inhibition at 10 µM is 47.9%.

`CCCC(=O)Nc1cncc(-c2ccc3[nH]nc(-c4cc5c(-c6ccc(F)cc6)cccc5[nH]4)c3c2)c1` [Compound 45, N-(5-(3-(4-(4-Fluorophenyl)-1H-indol-2-yl)-1H-indazol-5-yl)pyridin-3-yl)butyramide]: in the assay on SW480 colon cancer cells, the inhibition at 10 µM stood at 5.3% and the EC50 was > 10 µM. In the assay on IL-6, the EC50 is > 10 µM and the inhibition at 10 µM stood at 44.6%.

With `Fc1ccc(-c2cccc3[nH]c(-c4n[nH]c5ccc(-c6cncnc6)cc45)cc23)cc1` [Compound 55, 3-(4-(4-Fluorophenyl)-1H-indol-2-yl)-5-(pyrimidin-5-yl)-1H-indazole], in the assay on SW480 colon cancer cells, the inhibition at 10 µM came to 26.3% and the EC50 was > 10 µM. A half-maximal response in the assay on IL-6 (EC50) required 0.488 µM.

As for `CCNCc1cncc(-c2ccc3[nH]nc(-c4cc5c(-c6ccccc6F)cccc5[nH]4)c3c2)c1` [Compound 62, N-((5-(3-(4-(2-Fluorophenyl)-1H-indol-2-yl)-1H-indazol-5-yl)pyridin-3-yl)methyl)ethanamine], in the assay on SW480 colon cancer cells, the inhibition at 10 µM is 44.5% and the concentration for a half-maximal effect (EC50) is > 10 µM. For the same compound, the EC50 in the assay on IL-6 worked out at 9.93 µM.

`CC(C)(C)CC(=O)Nc1cncc(-c2ccc3[nH]nc(-c4cc5c(-c6ccccc6F)cccc5[nH]4)c3c2)c1` [Compound 72, N-(5-(3-(4-(2-Fluorophenyl)-1H-indol-2-yl)-1H-indazol-5-yl)pyridin-3-yl)-3,3-dimethylbutanamide]: in the assay with SW480 colon cancer cells, the inhibition at 10 µM was 16.2% and the EC50 was > 10 µM. Also, in the assay with IL-6, the EC50 is > 10 µM and the inhibition at 10 µM was determined as 35.3%.

Regarding `O=C(Nc1cncc(-c2ccc3[nH]nc(-c4cc5c(-c6ccccc6F)cccc5[nH]4)c3c2)c1)C1CCCC1` [Compound 78, N-(5-(3-(4-(2-Fluorophenyl)-1H-indol-2-yl)-1H-indazol-5-yl)pyridin-3-yl) cyclopentanecarboxamide], the inhibition at 10 µM is 8.3% in the assay with SW480 colon cancer cells and 54.1% in the assay on IL-6. The EC50 in the assay with SW480 colon cancer cells and in the assay with IL-6 was > 10 µM throughout.

In the case of `FC1(F)CCN(Cc2cncc(-c3ccc4[nH]nc(-c5cc6c(-c7cccnc7)cccc6[nH]5)c4c3)c2)C1` [Compound 110, 5-(5-((3,3-Difluoropyrrolidin-1-yl)methyl)pyridin-3-yl)-3-(4-(pyridin-3-yl)-1H-indol-2-yl)-1H-indazole], in the assay on SW480 colon cancer cells, the inhibition at 10 µM was 20.3% and the EC50 is > 10 µM. In the assay on IL-6, the EC50 was > 10 µM and the inhibition at 10 µM came to 32.2%.

With `O=C(Cc1ccccc1)Nc1cncc(-c2ccc3[nH]nc(-c4cc5c(-c6ccncc6)cccc5[nH]4)c3c2)c1` [Compound 122, 2-Phenyl-N-(5-(3-(4-(pyridin-4-yl)-1H-indol-2-yl)-1H-indazol-5-yl)pyridin-3-yl)acetamide], in the assay on SW480 colon cancer cells, the inhibition at 10 µM is 7.8% and the EC50 was > 10 µM. In the assay with IL-6, the EC50 is > 10 µM and the inhibition at 10 µM amounted to 29.6%.

For `CCCC(=O)Nc1cncc(-c2ccc3[nH]nc(-c4cc5c(-c6ccncc6)cccc5[nH]4)c3c2)c1` [Compound 129, N-(5-(3-(4-(Pyridin-4-yl)-1H-indol-2-yl)-1H-indazol-5-yl)pyridin-3-yl) butyramide], the EC50 in the assay with SW480 colon cancer cells is 9.53 µM; in the assay with IL-6 it was > 10 µM. Moreover, the inhibition at 10 µM in the assay with IL-6 amounted to 33.4%.

`c1cc(-c2ccncc2)c2cc(-c3n[nH]c4ccc(-c5ccncc5)cc34)[nH]c2c1` [Compound 130, 5-(Pyridin-4-yl)-3-(4-(pyridin-4-yl)-1H-indol-2-yl)-1H-indazole]: in the assay on SW480 colon cancer cells, the inhibition at 10 µM amounted to 23.2% and the EC50 was > 10 µM. Also, in the assay on IL-6, the EC50 is > 10 µM and the inhibition at 10 µM was found to be 48.8%.

Take `O=C(Nc1cncc(-c2ccc3[nH]nc(-c4cc5c(-c6ccncc6)cccc5[nH]4)c3c2)c1)C1CCCCC1` [Compound 135, N-(5-(3-(4-(Pyridin-4-yl)-1H-indol-2-yl)-1H-indazol-5-yl)pyridin-3-yl) cyclohexanecarboxamide]: the inhibition at 10 µM with SW480 colon cancer cells was determined as 12.2%. Moreover, the EC50 in the assay with SW480 colon cancer cells is > 10 µM; in the assay with IL-6 it was 9.9 µM.

`c1ccc(-c2ccc3[nH]nc(-c4cc5c(-c6ccncc6)cccc5[nH]4)c3c2)nc1` [Compound 140, 5-(Pyridin-2-yl)-3-(4-(pyridin-4-yl)-1H-indol-2-yl)-1H-indazole]: in the assay with SW480 colon cancer cells, the inhibition at 10 µM was 37.8% and the EC50 was > 10 µM. The compound further registered an EC50 with IL-6 of 0.136 µM.

As for `Cc1ccncc1-c1ccc2[nH]nc(-c3cc4c(-c5ccccn5)cccc4[nH]3)c2c1` [Compound 145, 5-(4-Methylpyridin-3-yl)-3-(4-(pyridin-2-yl)-1H-indol-2-yl)-1H-indazole], in the assay on SW480 colon cancer cells, the inhibition at 10 µM came out at 36.7% and the concentration for a half-maximal effect (EC50) is > 10 µM. This compound gave an EC50 in the assay on IL-6 of 4.84 µM.

For the origin of these results see US10604512B2, “3-(1H-indol-2-yl)-1H-indazoles and therapeutic uses thereof” (Samumed, LLC, priority 2015, dated 2020).
